Values of other authors as cited in patent US4127539A, “Novel hexacosapeptides, intermediates therefore and pharmaceutical compositions and methods employing said hexacosapeptides” (priority 1977, dated 1978).

Assays:
[1] = test system: partially purified brain opiate receptor sites; conditions: literature, background section
rat = conditions: injected directly into the brain of the rat
[2] = literature, background section

H-Tyr-Gly-Gly-Phe-Met-OH [methionine enkephalin]
binding to partially purified brain opiate receptor sites [1]: binds stereo-specifically
analgesic effect (rat): only weak analgesic agent of short duration
activity in bioassays for opiate activity [2]: very active
